Data published in patent US4722892A, “Monoclonal antibodies against metal chelates” (priority 1984, dated 1988).
Read-outs that look alike come from different tables or passages of the source.

What was measured:
[1] = test system: monoclonal antibody CHA255; assay: Association constants of metal chelates with monoclonal antibody CHA255 by equilibrium dialysis (method of Eisen), displacement of In(III)-(L)-aminobenzyl EDTA; assay type: binding, BALB/c mice; settings: for Kd: dialysis 24h, 37°, pH 7
Source text: (§1) Table I below sets forth the association constants of the two monoclonal antibodies described in Example II for a number of chelates. In Part A, the relative affinities of the antibodies for aminobenzyl EDTA complexes of In(III) and other ions are shown. In Part B, the binding constants of the antibodies for In(III) complexes with other chelating agents are shown. The metals selected for comparison were trivalent ions similar to In(III) and divalent ions whose EDTA complexes form structures similar to that of an In-EDTA complex. The binding constants for the chelates were determined by the method of Eisen, Meth. Med. Res., 10, 106 (1964) by dialysis of the antibody and metal chelates to near equilibrium (24h) at 37° in 0.05M 2-hydroxyethyl-piperazine-ethanesulfonate, 0.lM NaCl, 0.1% NaN3 and 0.1% bovine serum albumin at pH 7. The concentration of antibody binding sites inside the dialysis bag was 10^-7 M, and the concentration of free In(III)-(L)-aminobenzyl EDTA was in the same range.
(§2) Known amounts of another chelate were added to the solution after equilibrium until roughly half of the bound indium chelate had been displaced at equilibrium.

[2] = test system: monoclonal antibody CHB235; assay: Association constants of metal chelates with monoclonal antibody CHB235 by equilibrium dialysis (method of Eisen), displacement of In(III)-(L)-aminobenzyl EDTA; assay type: binding, BALB/c mice; settings: dialysis 24h, 37°, pH 7
Source text: as §1, §2

[3] = metal-EDTA chelate (not the L-Benzyl-EDTA chelate); from Sillen and Martell / Martell and Smith; cited from earlier work
[4] = Table 1 Part B, indium chelates with different chelators, read-out: K A^CHA255 (antibody binding constant for each indium chelate) (converted)
[5] = Table 1 Part B, indium chelates with different chelators, read-out: K A^CHA235 (antibody binding constant for each indium chelate) (converted)

Molecule | Kd [1, 4] [nM] | Kd [2, 5] [nM] | log K S^EDTA(M) (logarithm of the stability constant for each metal-EDTA chelate) [3] | Kd ([1]; Table 1 Part A, coefficient of variation in parentheses, read-out: K A^CHA255 (antibody binding constant for metal-L-Benzyl-EDTA chelate) (converted)) [nM] | affinity (KA) ([1]; summary statement, antibody not named) | Kd ([2]; Table 1 Part A, coefficient of variation on next line, read-out: K A^CHB235 (antibody binding constant for metal-L-Benzyl-EDTA chelate) (converted)) [nM]
O=C(O)CN(CC(=O)O)CC(Cc1ccccc1)N(CC(=O)O)CC(=O)O [D-Benzyl-EDTA] | 15.9 | 27.8 |  |  |  | 
O=C(O)CN(CCN(CC(=O)O)CC(=O)O)CC(=O)O [EDTA] | 5.88 | 7.69 |  |  |  | 
O=C(O)CN(CCO)CCN(CC(=O)O)CC(=O)O [HED3A] | 23.8 | 25 |  |  |  | 
In(III)-(L)-aminobenzyl EDTA | 0.25 | 9.09 | 25.0 | 0.25 | greater than 10^9 M^-1 | 9.09
